Counter-ions that a name gives are not always drawn.
What was measured:
[1] = Physical stability of dry granulation formulation during processing and storage (XRPD); type: physicochemical; conditions: intragranular blend, milled granules, final blend (FIG. 4)
[2] = Intrinsic dissolution rate, rotating disk apparatus; type: physicochemical; conditions: 100 rpm, 37±0.5° C., 500 mL
Protocol: Intrinsic dissolution measurements were conducted using a rotating disk apparatus. Disks of Compound 1, Compound 2 and Compound 3 were separately prepared by directly compressing 100 mg of a powder of the respectively compounds in a die at a pressure of 2500 psi for 2 minutes using a hydraulic press (Carver Press, Fred Carver, NJ, USA). The exposed surface area for the resulting disks was 0.5 cm^2. A USP dissolution apparatus maintained at 37±0.5° C. was used for the dissolution study. Each dissolution vessel contained 500 mL of aqueous dissolution medium of 0.05 N HCl or pH 6.8 20 mM phosphate buffer with 1% cetyltrimetrylammonium bromide (CTAB). The disk holder (die) was half-immersed into the dissolution medium and rotated at 100 rpm. Samples were withdrawn at specified time intervals and the amount of compound dissolved was determined by HPLC.
The amount of compound dissolved at each time point was plotted versus time and the observed dissolution rate (mg/min) was obtained from the slope of the plot. The observed dissolution rate was divided by the surface area of the compound disk (0.5 cm^2) to obtain the intrinsic dissolution rate.

Row | form change by XRPD during processing [1] | Intrinsic dissolution rate in pH 1.3 0.05N HCl with 0.9% NaCl [2] | Structure (SMILES)
1 | no form change was observed | – | c1cn2cc(-c3ccc4cn[nH]c4c3)nc(Nc3ccc(N4CCOCC4)cc3)c2n1 [bis-mesylate salt of Formula IA]
2 | – | 0.00046 mg/min/cm^2 | c1cn2cc(-c3ccc4cn[nH]c4c3)nc(Nc3ccc(N4CCOCC4)cc3)c2n1 [Compound 1]
